Patent US6737383B1, “Herbicidal oxadiazolidines” (priority 1999, dated 2004)

Columns and labels:
wild oat = assay: Test B pre/postemergence wild oat; type: in vivo, Avena fatua
Procedure, shortened: (§1)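 Herbicidal effect was estimated by eye on a ten-point control scale after plants spent twelve to sixteen days in a greenhouse following soil or foliar treatment. Foliar sprays targeted plants at one to four leaves; all doses were formulated in a non-phytotoxic solvent with surfactant.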

bedstraw = assay: Test B pre/postemergence bedstraw; type: in vivo, Galium aparine; conditions: Preemergence
Procedure, shortened: as §1

morningglory = assay: Test B pre/postemergence morningglory; type: in vivo, Ipomoea hederacea
Procedure, shortened: as §1

giant foxtail = assay: Test B pre/postemergence giant foxtail; type: in vivo, Setaria faberii
Procedure, shortened: as §1

cocklebur = assay: Test B pre/postemergence cocklebur; type: in vivo, Xanthium strumarium
Procedure, shortened: as §1

wheat = assay: Test B pre/postemergence wheat; type: in vivo, Triticum aestivum
Procedure, shortened: as §1

crabgrass = assay: Test B pre/postemergence crabgrass; type: in vivo, Digitaria sanguinalis
Procedure, shortened: as §1

soybean = assay: Test B pre/postemergence soybean; type: in vivo, Glycine max
Procedure, shortened: as §1

pigweed = assay: Test B pre/postemergence pigweed; type: in vivo, Amaranthus retroflexus
Procedure, shortened: as §1

velvetleaf = assay: Test B pre/postemergence velvetleaf; type: in vivo, Abutilon theophrasti
Procedure, shortened: as §1

corn = assay: Test B pre/postemergence corn; type: in vivo, Zea mays
Procedure, shortened: as §1

purple nutsedge = assay: Test B pre/postemergence purple nutsedge; type: in vivo, Cyperus rotundus
Procedure, shortened: as §1

surinam grass = assay: Test B pre/postemergence surinam grass; type: in vivo, Brachiaria decumbens
Procedure, shortened: as §1

sugar beet = assay: Test B pre/postemergence sugar beet; type: in vivo, Beta vulgaris
Procedure, shortened: as §1

blackgrass = assay: Test B pre/postemergence blackgrass; type: in vivo, Alopecurus myosuroides
Procedure, shortened: as §1

rape = assay: Test B pre/postemergence rape; type: in vivo, Brassica napus
Procedure, shortened: as §1

[1] = Postemergence, Rate 62 g/ha, scale of 0 to 10, 0 is no effect, 10 is complete control
[2] = Postemergence, Rate 125 g/ha, scale 0 to 10, 0 is no effect, 10 is complete control
[3] = Postemergence, Rate 500 g/ha, scale 0 to 10, 0 is no effect, 10 is complete control
[4] = Preemergence, Rate 62 g/ha, scale 0 to 10 (0 no effect, 10 complete control)
[5] = Preemergence, Rate 125 g/ha, scale 0 to 10, 0 is no effect, 10 is complete control
[6] = Preemergence, Rate 500 g/ha, scale of 0 to 10 where 0 is no effect and 10 is complete control
[7] = Rate 250 g/ha, Postemergence, scale of 0 to 10 where 0 is no effect and 10 is complete control

COCCOCn1c(=O)on(C(=O)N(c2ccc(Cl)cc2)C(C)C)c1=O [Compound 535] was tested, and the “Wild oats plant response rating” value (wild oat; [1]) was 0, the “Wild oats plant response rating” value (wild oat; [2]) was 0 and the “Plant response rating, Wild oats” value (wild oat; [3]) was 2. The “Wild oats plant response rating” value (wild oat; [4]) was 0, the “Wild oats plant response rating” value (wild oat; [5]) was 0 and the “Wild oats plant response rating (0 to 10 scale)” value (wild oat; Preemergence, Rate 250 g/ha) was 0. For the same molecule, the “Wild oats plant response rating” value (wild oat; [6]) was 0, the “Plant response rating, Wild oats” value (wild oat; [7]) was 0 and the “Bedstraw plant response rating” value (bedstraw; Rate 62 g/ha, scale 0 to 10 (0 no effect, 10 complete control)) was 0. For the same molecule, the “Bedstraw plant response rating” value (bedstraw; Rate 125 g/ha, scale 0 to 10, 0 is no effect, 10 is complete control) was 0, the “Bedstraw plant response rating” value (bedstraw; Rate 500 g/ha, scale of 0 to 10 where 0 is no effect and 10 is complete control) was 0 and the “Morningglory plant response rating” value (morningglory; [1]) was 4. For the same molecule, the “Morningglory plant response rating” value (morningglory; [2]) was 2, the “Plant response rating, Morningglory” value (morningglory; [3]) was 3 and the “Morningglory plant response rating” value (morningglory; [4]) was 0. The “Morningglory plant response rating” value (morningglory; [5]) was 0, the “Morningglory plant response rating (0 to 10 scale)” value (morningglory; Preemergence, Rate 250 g/ha) was 0 and the “Morningglory plant response rating” value (morningglory; [6]) was 2. The “Plant response rating, Morningglory” value (morningglory; [7]) was 2, the “Giant foxtail plant response rating” value (giant foxtail; [1]) was 5 and the “Plant response rating, Giant foxtail” value (giant foxtail; [3]) was 5. The “Giant foxtail plant response rating” value (giant foxtail; [4]) was 10, the “Giant foxtail plant response rating” value (giant foxtail; [5]) was 10 and the “Giant foxtail plant response rating (0 to 10 scale)” value (giant foxtail; Preemergence, Rate 250 g/ha) was 10. The “Giant foxtail plant response rating” value (giant foxtail; [6]) was 10, the “Plant response rating, Giant foxtail” value (giant foxtail; [7]) was 5 and the “Cocklebur plant response rating” value (cocklebur; [1]) was 0. For the same molecule, the “Cocklebur plant response rating” value (cocklebur; [2]) was 0, the “Plant response rating, Cocklebur” value (cocklebur; [3]) was 0 and the “Cocklebur plant response rating” value (cocklebur; [4]) was 0. For the same molecule, the “Cocklebur plant response rating” value (cocklebur; [5]) was 0, the “Cocklebur plant response rating (0 to 10 scale)” value (cocklebur; Preemergence, Rate 250 g/ha) was 0 and the “Cocklebur plant response rating” value (cocklebur; [6]) was 0. For the same molecule, the “Plant response rating, Cocklebur” value (cocklebur; [7]) was 0, the “Wheat plant response rating” value (wheat; [1]) was 0 and the “Wheat plant response rating” value (wheat; [2]) was 0. The “Plant response rating, Wheat” value (wheat; [3]) was 2, the “Wheat plant response rating” value (wheat; [4]) was 0 and the “Wheat plant response rating” value (wheat; [5]) was 0. For the same molecule, the “Wheat plant response rating (0 to 10 scale)” value (wheat; Preemergence, Rate 250 g/ha) was 0, the “Wheat plant response rating” value (wheat; [6]) was 0 and the “Plant response rating, Wheat” value (wheat; [7]) was 0. For the same molecule, the “Crabgrass plant response rating” value (crabgrass; [1]) was 5, the “Plant response rating, Crabgrass” value (crabgrass; [3]) was 6 and the “Crabgrass plant response rating” value (crabgrass; [4]) was 10. For the same molecule, the “Crabgrass plant response rating” value (crabgrass; [5]) was 10, the “Crabgrass plant response rating (0 to 10 scale)” value (crabgrass; Preemergence, Rate 250 g/ha) was 10 and the “Crabgrass plant response rating” value (crabgrass; [6]) was 10. The “Plant response rating, Crabgrass” value (crabgrass; [7]) was 5, the “Soybean plant response rating” value (soybean; [1]) was 3 and the “Soybean plant response rating” value (soybean; [2]) was 6. The “Plant response rating, Soybean” value (soybean; [3]) was 8, the “Soybean plant response rating” value (soybean; [4]) was 0 and the “Soybean plant response rating” value (soybean; [5]) was 0. The “Soybean plant response rating (0 to 10 scale)” value (soybean; Preemergence, Rate 250 g/ha) was 0, the “Soybean plant response rating” value (soybean; [6]) was 0 and the “Plant response rating, Soybean” value (soybean; [7]) was 6. The “Redroot pigweed plant response rating” value (pigweed; [1]) was 0, the “Redroot pigweed plant response rating” value (pigweed; [2]) was 0 and the “Plant response rating, Redroot pigweed” value (pigweed; [3]) was 0. The “Redroot pigweed plant response rating” value (pigweed; [4]) was 2, the “Redroot pigweed plant response rating” value (pigweed; [5]) was 2 and the “Redroot pigweed plant response rating (0 to 10 scale)” value (pigweed; Preemergence, Rate 250 g/ha) was 4. For the same molecule, the “Redroot pigweed plant response rating” value (pigweed; [6]) was 4, the “Plant response rating, Redroot pigweed” value (pigweed; [7]) was 0 and the “Velvetleaf plant response rating” value (velvetleaf; [1]) was 0. The “Velvetleaf plant response rating” value (velvetleaf; [2]) was 0, the “Plant response rating, Velvetleaf” value (velvetleaf; [3]) was 2 and the “Velvetleaf plant response rating” value (velvetleaf; [4]) was 0. For the same molecule, the “Velvetleaf plant response rating” value (velvetleaf; [5]) was 0, the “Velvetleaf plant response rating (0 to 10 scale)” value (velvetleaf; Preemergence, Rate 250 g/ha) was 2 and the “Plant response rating, Velvetleaf” value (velvetleaf; [7]) was 0. The “Corn plant response rating” value (corn; [1]) was 0, the “Corn plant response rating” value (corn; [2]) was 0 and the “Plant response rating, Corn” value (corn; [3]) was 0. The “Corn plant response rating” value (corn; [4]) was 0, the “Corn plant response rating” value (corn; [5]) was 0 and the “Corn plant response rating (0 to 10 scale)” value (corn; Preemergence, Rate 250 g/ha) was 0. For the same molecule, the “Corn plant response rating” value (corn; [6]) was 2, the “Plant response rating, Corn” value (corn; [7]) was 0 and the “Nutsedge plant response rating” value (purple nutsedge; [1]) was 0. For the same molecule, the “Nutsedge plant response rating” value (purple nutsedge; [2]) was 0, the “Plant response rating, Nutsedge” value (purple nutsedge; [3]) was 0 and the “Nutsedge plant response rating” value (purple nutsedge; [4]) was 0. For the same molecule, the “Nutsedge plant response rating” value (purple nutsedge; [5]) was 0, the “Nutsedge plant response rating (0 to 10 scale)” value (purple nutsedge; Preemergence, Rate 250 g/ha) was 0 and the “Nutsedge plant response rating” value (purple nutsedge; [6]) was 0. The “Plant response rating, Nutsedge” value (purple nutsedge; [7]) was 0, the “B. signalgrass plant response rating” value (surinam grass; [1]) was 0 and the “B. signalgrass plant response rating” value (surinam grass; [2]) was 0. The “Plant response rating, B. signalgrass” value (surinam grass; [3]) was 3, the “B. signalgrass plant response rating” value (surinam grass; [5]) was 0 and the “B. signalgrass plant response rating (0 to 10 scale, 0 is no effect, 10 is complete control)” value (surinam grass; Preemergence, Rate 250 g/ha) was 0. For the same molecule, the “B. signalgrass plant response rating” value (surinam grass; [6]) was 0, the “Plant response rating, B. signalgrass” value (surinam grass; [7]) was 0 and the “Sugarbeets plant response rating” value (sugar beet; [1]) was 0. The “Sugarbeets plant response rating” value (sugar beet; [2]) was 0, the “Plant response rating, Sugarbeets” value (sugar beet; [3]) was 0 and the “Sugarbeets plant response rating” value (sugar beet; [4]) was 4. For the same molecule, the “Sugarbeets plant response rating” value (sugar beet; [5]) was 4, the “Sugarbeets plant response rating (0 to 10 scale)” value (sugar beet; Preemergence, Rate 250 g/ha) was 5 and the “Plant response rating, Sugarbeets” value (sugar beet; [7]) was 0. The “Blackgrass plant response rating” value (blackgrass; [1]) was 0, the “Blackgrass plant response rating” value (blackgrass; [2]) was 4 and the “Plant response rating, Blackgrass” value (blackgrass; [3]) was 8. The “Blackgrass plant response rating” value (blackgrass; [5]) was 0, the “Blackgrass plant response rating (0 to 10 scale)” value (blackgrass; Preemergence, Rate 250 g/ha) was 0 and the “Blackgrass plant response rating” value (blackgrass; [6]) was 0. For the same molecule, the “Plant response rating, Blackgrass” value (blackgrass; [7]) was 7, the “Rape plant response rating” value (rape; [1]) was 0 and the “Rape plant response rating” value (rape; [2]) was 0. The “Plant response rating, Rape” value (rape; [3]) was 0, the “Rape plant response rating” value (rape; [4]) was 2 and the “Rape plant response rating” value (rape; [5]) was 2. For the same molecule, the “Rape plant response rating (0 to 10 scale)” value (rape; Preemergence, Rate 250 g/ha) was 2, the “Rape plant response rating” value (rape; [6]) was 3 and the “Plant response rating, Rape” value (rape; [7]) was 0.
